In US9457033B2, “Steroid alkaloids and uses thereof as antimicrobial agents against electron transport-deficient microbes and as potentiators for antimicrobial agents against pathogenic bacteria” (priority 2011, dated 2016):
≈ marks a conversion by molar mass, not a printed value. Where two headings read alike, the source gives them in different places.

Key:
Assay in all cases: MIC, microdilution in CAMHB 24 h
Format in all cases: cell-based, Staphylococcus aureus
S. aureus 8325-4 = conditions: 8325-4; for MIC: Staphylococcus aureus, 83254
S. aureus MA078038 = conditions: for MIC: Staphylococcus aureus
S. aureus Newman = conditions: Newman; for MIC: Staphylococcus aureus
S. aureus Mu50 = conditions: for MIC: Staphylococcus aureus
S. aureus CF7A-L = conditions: CF7A-L; for MIC: Staphylococcus aureus
[1] = 8 μg/ml of tomatidine, read-out: MIC +TO
[2] = absence of tomatidine, read-out: MIC −TO

## NC[C@H]1O[C@H](O[C@H]2[C@H](O)[C@@H](O[C@H]3O[C@H](CO)[C@@H](O)[C@H](N)[C@H]3O)[C@H](N)C[C@@H]2N)[C@H](O)[C@@H](O)[C@@H]1O [Kanamycin, kanamycin]
S. aureus 8325-4; 8 μg/ml of tomatidine
  Fold (−TO/+TO): 2-4 fold
S. aureus 8325-4; [1]
  MIC: 0.5 to 4 µg/mL (≈ 1.03 to 8.26 µM)
S. aureus 8325-4; Laboratory strain, read-out: MIC
  MIC: 2 to 8 µg/mL (≈ 4.13 to 16.5 µM)
S. aureus 8325-4; [2]
  MIC: 2 to 8 µg/mL (≈ 4.13 to 16.5 µM)
S. aureus MA078038; MA078038, 8 μg/ml of tomatidine
  Fold (−TO/+TO): >1 fold
S. aureus MA078038; MA078038, aph(3′)-IIIa, 8 μg/ml of tomatidine, read-out: MIC +TO
  MIC: 1020 µg/mL (≈ 2110 µM)
S. aureus MA078038; MA078038, aph(3′)-IIIa, absence of tomatidine, read-out: MIC −TO
  MIC: > 1020 µg/mL
S. aureus MA078038; MA078038, Human (CA), MRSA, read-out: MIC
  MIC: > 1020 µg/mL
S. aureus Newman; 8 μg/ml of tomatidine
  Fold (−TO/+TO): 8 fold
S. aureus Newman; [1]
  MIC: 0.5 µg/mL (≈ 1.03 µM)
S. aureus Newman; Human (Osteo), read-out: MIC
  MIC: 4 µg/mL (≈ 8.26 µM)
S. aureus Newman; [2]
  MIC: 4 µg/mL (≈ 8.26 µM)
S. aureus Mu50; Mu50, 8 μg/ml of tomatidine
  Fold (−TO/+TO): >2-4 fold
S. aureus Mu50; Mu50, aac(6′)-aph(2″), ant(4′)-Ia, 8 μg/ml of tomatidine, read-out: MIC +TO
  MIC: 256 to 512 µg/mL (≈ 528 to 1060 µM)
S. aureus Mu50; Mu50, aac(6′)-aph(2″), ant(4′)-Ia, absence of tomatidine, read-out: MIC −TO
  MIC: > 1020 µg/mL
S. aureus Mu50; Mu50, Human (SSTI), MRSA, VISA, read-out: MIC
  MIC: > 1020 µg/mL
S. aureus CF7A-L; 8 μg/ml of tomatidine
  Fold (−TO/+TO): 2-4 fold
S. aureus CF7A-L; CF7AL, ant(4′)-Ia, 8 μg/ml of tomatidine, read-out: MIC +TO
  MIC: 64 to 256 µg/mL (≈ 132 to 528 µM)
S. aureus CF7A-L; CF7AL, ant(4′)-Ia, absence of tomatidine, read-out: MIC −TO
  MIC: 256 to 512 µg/mL (≈ 528 to 1060 µM)
S. aureus CF7A-L; Human (CF lungs), MRSA, read-out: MIC
  MIC: 256 to 512 µg/mL (≈ 528 to 1060 µM)
